Assay [1] has as its target T1, Adenosine receptor A3 (Homo sapiens, UniProt P0DMS8).
T1 sequence (P0DMS8 whole entry): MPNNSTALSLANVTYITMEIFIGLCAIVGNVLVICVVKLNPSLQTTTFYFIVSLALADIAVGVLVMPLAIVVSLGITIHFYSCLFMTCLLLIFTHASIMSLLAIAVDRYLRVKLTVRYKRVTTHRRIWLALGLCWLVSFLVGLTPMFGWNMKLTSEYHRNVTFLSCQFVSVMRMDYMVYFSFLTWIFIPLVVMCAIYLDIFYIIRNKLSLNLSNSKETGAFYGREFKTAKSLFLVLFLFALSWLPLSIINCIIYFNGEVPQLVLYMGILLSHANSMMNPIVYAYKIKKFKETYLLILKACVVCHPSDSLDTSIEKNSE
As to the kind of experiment: biochemical.
Description: Binding affinity against human adenosine A3 receptor expressed in CHO cells by [125I]AB-MECA displacement.

Assay [2] has as its target T2, Adenosine receptor A1 (Homo sapiens) (UniProt P30542).
T2 sequence (whole entry): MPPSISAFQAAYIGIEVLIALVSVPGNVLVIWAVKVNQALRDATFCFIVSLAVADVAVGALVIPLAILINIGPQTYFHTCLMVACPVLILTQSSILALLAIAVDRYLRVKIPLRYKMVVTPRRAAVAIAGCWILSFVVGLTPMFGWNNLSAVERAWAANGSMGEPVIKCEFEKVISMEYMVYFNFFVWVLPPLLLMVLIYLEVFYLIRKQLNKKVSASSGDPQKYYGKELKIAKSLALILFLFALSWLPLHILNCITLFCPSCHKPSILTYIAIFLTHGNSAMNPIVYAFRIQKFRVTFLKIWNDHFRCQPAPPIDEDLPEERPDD
The experiment in a line: Percent inhibition against human adenosine A1 receptor expressed in CHO cells using [3H]CHA at 10 uM. It is filed as cell-based.

The subject of assay [3] is Adenosine receptor A2a (Bos taurus). The experiment in a line: Inhibition of [3H]-CGS- 21680 binding to adenosine A2a receptor of bovine striatal membranes.
Assay [4] addresses T3, Adenosine receptor A1 (Bos taurus) (UniProt P28190).
T3 sequence (whole entry): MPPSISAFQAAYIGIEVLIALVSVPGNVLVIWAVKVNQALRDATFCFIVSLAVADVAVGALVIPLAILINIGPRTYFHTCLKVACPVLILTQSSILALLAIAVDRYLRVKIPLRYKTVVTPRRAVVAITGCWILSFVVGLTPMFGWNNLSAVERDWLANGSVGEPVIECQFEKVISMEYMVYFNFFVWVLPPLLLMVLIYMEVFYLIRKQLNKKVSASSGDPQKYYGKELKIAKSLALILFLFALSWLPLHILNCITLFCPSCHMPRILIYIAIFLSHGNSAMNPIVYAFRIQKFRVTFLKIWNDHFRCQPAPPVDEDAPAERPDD
The experiment in a line: Inhibition of [3H]CHA binding to adenosine A1 receptor of bovine brain membranes. The class given is cell membranes.

The target in assay [5] is T4, Adenosine receptor A1 (Bos taurus, UniProt P28190).
T4 sequence (P28190 whole entry): T3 sequence (whole entry)
Description: Binding affinity against adenosine A1 receptor in bovine brain membranes by [3H]CHA displacement.

Assay [6] concerns the target T5, Adenosine receptor A1 (Homo sapiens, UniProt P30542).
T5 sequence (P30542 whole entry): T2 sequence (whole entry)
As to the kind of experiment: biochemical.
Description: Binding affinity against human adenosine A1 receptor expressed in CHO cells using [3H]CHA

Assay [7] concerns the target Adenosine receptor A2a (Bos taurus).
The target of assay [8] is T6, Adenosine receptor A3 (Homo sapiens) (UniProt P0DMS8).
T6 sequence (whole entry): T1 sequence (P0DMS8 whole entry)
As to the kind of experiment: Percent inhibition against human adenosine A3 receptor expressed in CHO cells using [125I]AB-MECA at 1 uM. The class given is cell-based.

In assay [9] the target is Adenosine receptors; A2a & A3 (Homo sapiens) (UniProt P0DMS8+P29274). The experiment in a line: Selectivity as ratio of affinity against human adenosine A3 and A2A receptors. The class given is protein assay.
Assay [10] has as its target Adenosine receptors; A1 & A3 (Homo sapiens) (UniProt P30542+P0DMS8). As to the kind of experiment: Selectivity as ratio of affinity against human adenosine A3 and A1 receptors. The class given is protein assay.
Assay [11] deals with T1, Adenosine receptor A3. The experiment in a line: Effective concentration for inhibition of NECA-stimulated [35S]GTP-gamma-S, binding at human adenosine A3 receptor expressed in CHO cells. It is filed as functional, cell-based.

The structures appear in SMILES notation.

Adenosine receptors; A2a & A3 (Homo sapiens), sequence (P29274 whole entry, looked up, one chain of several): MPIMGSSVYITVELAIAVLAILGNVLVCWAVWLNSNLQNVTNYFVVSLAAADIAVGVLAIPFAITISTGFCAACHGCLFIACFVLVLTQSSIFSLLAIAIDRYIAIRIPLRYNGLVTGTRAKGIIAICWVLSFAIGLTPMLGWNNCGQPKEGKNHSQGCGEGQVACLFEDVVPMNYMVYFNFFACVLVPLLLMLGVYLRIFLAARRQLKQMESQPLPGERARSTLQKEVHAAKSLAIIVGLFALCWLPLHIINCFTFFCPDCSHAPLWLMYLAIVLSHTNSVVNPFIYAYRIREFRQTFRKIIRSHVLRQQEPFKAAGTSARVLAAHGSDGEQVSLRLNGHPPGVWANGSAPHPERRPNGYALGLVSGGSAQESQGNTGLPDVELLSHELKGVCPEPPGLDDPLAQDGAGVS

Turning to `CCOc1ccc(-n2nc3c(=O)[nH]c4ccccc4n3c2=O)cc1`, the affinity on Adenosine receptor A3 [1], expressed as Ki, was 175 nM.
As to `COc1ccc(-n2nc3c(=O)[nH]c4c([N+](=O)[O-])cccc4n3c2=O)cc1`, the I in assay [2] worked out at 0%; in assay [3], 14%; in assay [4], 25%.
`CC(=O)Oc1ccc(-n2nc3c(=O)[nH]c4ccccc4n3c2=O)cc1`: the inhibition constant (Ki) on Adenosine receptor A1 [5] came out at 26 nM; on Adenosine receptor A3 [1], 11.2 nM; at Adenosine receptor A1 [6], 320 nM; in assay [7] it was 9700 nM.
Turning to `COc1ccc(-n2nc3c(N)nc4c([N+](=O)[O-])cccc4n3c2=O)cc1`, the figures for the I in assay [2], in assay [3] and in assay [4] were 45%, 16.5% and 19%, respectively. On Adenosine receptor A3 [1], the affinity corresponds to a Ki of 47 nM.
As for `Nc1nc2c([N+](=O)[O-])cccc2n2c(=O)n(-c3ccc([N+](=O)[O-])cc3)nc12`, on Adenosine receptor A1 [5], the affinity, expressed as Ki, was 155 nM. Also, the I turned out to be 2.7% in [3] and 30% in assay [8].
On to `Nc1nc2ccccc2n2c(=O)n(-c3ccc([N+](=O)[O-])cc3)nc12`, for which the I amounted to 31% in [3], 11.9% in [4] and 28% in assay [8].
Regarding `Nc1nc2c([N+](=O)[O-])cccc2n2c(=O)n(-c3ccccc3)nc12`, the Ki at Adenosine receptor A1 [5] is 82 nM; at Adenosine receptor A3 [1] it was 4.75 nM; on Adenosine receptor A1 [6], 870 nM.
On to `Nc1ccc(-n2nc3c(=O)[nH]c4ccccc4n3c2=O)cc1`, for which, on Adenosine receptor A3 [1], the affinity corresponds to a Ki of 3600 nM.
For `CCOc1ccc(-n2nc3c(N)nc4ccccc4n3c2=O)cc1`, the inhibition constant Ki was 537 nM at Adenosine receptor A1 [5], 203 nM at Adenosine receptor A3 [1] and 13000 nM in assay [7].
With `O=c1[nH]c2c([N+](=O)[O-])cccc2n2c(=O)n(-c3ccc(O)cc3)nc12`, the figures for the I in assay [3], in assay [4] and in [8] were 4%, 38% and 21%, respectively.
Turning to `O=c1[nH]c2ccccc2n2c(=O)n(-c3ccc(O)cc3)nc12`, the inhibitory constant (Ki) came out at 30.6 nM at Adenosine receptor A1 [5], 47 nM at Adenosine receptor A3 [1] and 168 nM on Adenosine receptor A1 [6].
As for `Nc1cccc2c1[nH]c(=O)c1nn(-c3ccc(O)cc3)c(=O)n12`, the affinity on Adenosine receptor A1 [5] corresponds to a Ki of 996 nM. For the same compound, the figures for the I in assay [3] and in assay [8] were 36% and 39%, respectively.
`COc1ccc(-n2nc3c(=O)[nH]c4ccccc4n3c2=O)cc1` displayed an I in assay [2] of 42%.
As for `COc1ccc(-n2nc3c(=O)[nH]c4c(N)cccc4n3c2=O)cc1`, affinity at Adenosine receptor A3 [1] was put at a Ki of 83 nM. Moreover, the figures for the I in assay [3] and in assay [4] were 23% and 16%, respectively.
Regarding `COc1ccc(-n2nc3c(N)nc4c(N)cccc4n3c2=O)cc1`, the values for the Ki (at Adenosine receptor A3 [1]; on Adenosine receptor A1 [6]; in [7]) were 22 nM, 186 nM and 1050 nM, respectively. Further, the I in assay [4] is 38%.
For the compound `Nc1nc2c([N+](=O)[O-])cccc2n2c(=O)n(-c3ccc(O)cc3)nc12`, the inhibition constant (Ki) on Adenosine receptor A1 [5] was found to be 446 nM; in [7] it was 1600 nM. In assay [8], this compound registered an I of 45%.
For the compound `O=c1[nH]c2ccccc2n2c(=O)n(-c3ccc([N+](=O)[O-])cc3)nc12`, the values for the I in assay [2], in [3] and in assay [4] were 32%, 21% and 19%, respectively. In addition, the Selectivity ratio in [9] and in assay [10] was more than 16600 throughout. On Adenosine receptor A3 [11], this compound had a half-maximal effective concentration (EC50) of 5.4 nM. This compound displayed an inhibition constant (Ki) on Adenosine receptor A3 [1] of 0.6 nM.
In the case of `CC(=O)Oc1ccc(-n2nc3c(=O)[nH]c4c([N+](=O)[O-])cccc4n3c2=O)cc1`, the I turned out to be 0% in assay [3], 21.3% in assay [4] and 20% in assay [8].
For `Nc1ccc(-n2nc3c(N)nc4ccccc4n3c2=O)cc1`, the figures for the inhibition constant (Ki) (on Adenosine receptor A1 [5]; at Adenosine receptor A3 [1]; in [7]) were 48 nM, 335 nM and 3.6 nM, respectively.
Take `Nc1cccc2c1nc(N)c1nn(-c3ccc(O)cc3)c(=O)n12`: the inhibition constant Ki on Adenosine receptor A1 [5] amounted to 61 nM; at Adenosine receptor A3 [1], 176 nM; in assay [7], 181 nM.
Turning to `COc1ccc(-n2nc3c(N)nc4ccccc4n3c2=O)cc1`, the Ki on Adenosine receptor A1 [6] amounted to 69 nM.
Turning to `Nc1nc2ccccc2n2c(=O)n(-c3ccc(O)cc3)nc12`, the Ki on Adenosine receptor A1 [5] came to 116 nM; at Adenosine receptor A3 [1], 73.2 nM; in assay [7] it was 80 nM.
For the compound `CN(C)c1ccc(-n2nc3c(=O)[nH]c4ccccc4n3c2=O)cc1`, the Ki at Adenosine receptor A1 [5] came out at 578 nM; on Adenosine receptor A3 [1], 429 nM. In assay [3], the I was 0%.
At Adenosine receptor A1 [5], `O=c1[nH]c2c([N+](=O)[O-])cccc2n2c(=O)n(-c3ccc([N+](=O)[O-])cc3)nc12` displayed a Ki of 91 nM. The values for the I in assay [3] and in [8] were 0% and 24%, respectively.

The values above are taken from ChEMBL document CHEMBL1148352, “1,2,4-triazolo[4,3-a]quinoxalin-1-one moiety as an attractive scaffold to develop new potent and selective human A3 adenosine receptor antagonists: synthesis, pharmacological, and ligand-receptor modeling studies” (J Med Chem, 2004).
